The results in this text go back to ChEMBL document CHEMBL3272053, “(exo, exo)-2-Aryltropane-3-carboxylic esters, hypoglycemic agents with accompanying analgesic activity” (J Med Chem, 1978).

Calls of active or inactive are those of the source. No cut-off for these calls is given here.

In data set [1] the test system is Rattus norvegicus. Nature of the data set: Narcotic analgesic activity in fasted Sprague-Dawley rat at 240 mg/kg, po measured at 15 mins by D'Amour-Smith tail-flick test relative to control. The class given is functional.
For data set [2], the system named is Mus musculus. Nature of the data set: Analgesic activity in Swiss-Webster mouse assessed as reduction of acetylcholine-induced writhing at 75 mg/kg, sc relative to control. The conditions noted are these: route subcutaneous. Set-up: scale not given: the % may be the effect or the level left. The class given is functional. (In general: In writhing tests, fewer writhes than in controls are read as antinociception.)

Data set [3] relates to Rattus norvegicus. Nature of the data set: Hypoglycemic activity in Sprague-Dawley rat assessed as reduction of blood glucose level at 78 mg/kg, po by glucagon-impaired glucose disposal test relative to control. The class given is functional. The arrangement: scale not given: the % may be the effect or the level left.
Data set [4] concerns Rattus norvegicus. Nature of the data set: Narcotic analgesic activity in fasted Sprague-Dawley rat at 240 mg/kg, po measured at 60 mins by D'Amour-Smith tail-flick test relative to control. The class given is functional. A general note: Thermal pain tests record how soon the animal reacts.
The test system of data set [5] is Rattus norvegicus. Nature of the data set: Toxicity in Sprague-Dawley rat assessed as tremor at 480 mg/kg, po. The class given is organism-based. The arrangement: dose 480 mg/kg, route oral. The conditions noted are these: in vivo.
The subject of data set [6] is Mus musculus. Nature of the data set: Analgesic activity in po dosed Swiss-Webster mouse assessed as reduction of acetylcholine-induced writhing. The class given is functional.
The test system of data set [7] is Rattus norvegicus. In words: Toxicity in Sprague-Dawley rat assessed as hyperexcitability at 480 mg/kg, po. Type of data set: organism-based. The arrangement: dose 480 mg/kg, route oral. The conditions noted are these: in vivo.
Data set [8] has as its system Rattus norvegicus. Nature of the data set: Narcotic analgesic activity in fasted Sprague-Dawley rat at 480 mg/kg, po measured at 60 mins by D'Amour-Smith tail-flick test relative to control. Type of data set: functional.
Data set [9] concerns Rattus norvegicus. In words: Hypoglycemic activity in Sprague-Dawley rat assessed as reduction of blood glucose level at 100 mg/kg, po by glucagon-impaired glucose disposal test relative to control. Set-up: scale not given: the % may be the effect or the level left. The class given is functional.
Data set [10] has as its system Rattus norvegicus. Nature of the data set: Analgesic activity in po dosed rat assessed as reduction of intraarterial bradykinin-induced pain response. Type of data set: functional.
In data set [11] the test system is Rattus norvegicus. In words: Hypoglycemic activity in Sprague-Dawley rat assessed as reduction of blood glucose level at 88 mg/kg, po by glucagon-impaired glucose disposal test relative to control. The class given is functional. The arrangement: scale not given: the % may be the effect or the level left.
For data set [12], the system named is Rattus norvegicus. In words: Toxicity in Sprague-Dawley rat assessed as rigidity at >=120 mg/kg, po. The class given is organism-based. The conditions noted are these: in vivo.
Data set [13] has as its system Rattus norvegicus. Nature of the data set: Potency index, ratio of codeine ED50 to compound ED50 for analgesic activity in po dosed rat assessed as reduction of intraarterial bradykinin-induced pain response. Type of data set: functional.
In data set [14] the test system is Rattus norvegicus. Nature of the data set: Narcotic analgesic activity in sc dosed fed Sprague-Dawley rat measured at 30 mins by D'Amour-Smith tail-flick test. The class given is functional. The conditions noted are these: Rattus norvegicus, Sprague-Dawley, Tail, sc, 0.5 h; read-out: ED50.
For data set [15], the system named is Rattus norvegicus. Nature of the data set: Toxicity in Sprague-Dawley rat assessed as hyperexcitability at >= 120 mg/kg, po. The arrangement: dose 120 mg/kg, route oral. The conditions noted are these: in vivo. The class given is organism-based.
For data set [16], the system named is Rattus norvegicus. Nature of the data set: Narcotic analgesic activity in po dosed fasted Sprague-Dawley rat measured at 60 mins by D'Amour-Smith tail-flick test. The class given is functional.
Data set [17] deals with Rattus norvegicus. Nature of the data set: Toxicity in Sprague-Dawley rat assessed as mortality at >= 120 mg/kg, po. Type of data set: organism-based. The arrangement: dose 120 mg/kg, route oral. The conditions noted are these: in vivo.
In data set [18] the test system is Rattus norvegicus. Nature of the data set: Toxicity in Sprague-Dawley rat assessed as tremor at >= 120 mg/kg, po. The class given is organism-based. The arrangement: dose 120 mg/kg, route oral. The conditions noted are these: in vivo.
For data set [19], the system named is Rattus norvegicus. In words: Hypoglycemic activity in glucose loaded Sprague-Dawley rat assessed as reduction of blood glucose level at 100 mg/kg, po relative to control. Set-up: scale not given: the % may be the effect or the level left. Type of data set: functional.
For data set [20], the species on record is Rattus norvegicus. In words: Narcotic analgesic activity in Sprague-Dawley rat measured at 15 mins by D'Amour-Smith tail-flick test relative to control. The class given is functional.
The test system of data set [21] is Rattus norvegicus. In words: Hypoglycemic activity in glucose loaded Sprague-Dawley rat assessed as reduction of blood glucose level at 264 mg/kg, po relative to control. Type of data set: functional. The arrangement: scale not given: the % may be the effect or the level left.
Data set [22] deals with Mus musculus. Nature of the data set: Analgesic activity in Swiss-Webster mouse assessed as reduction of acetylcholine-induced writhing at 50 mg/kg, po relative to control. The class given is functional. The arrangement: scale not given: the % may be the effect or the level left.
In data set [23] the test system is Rattus norvegicus. In words: Hypoglycemic activity in glucose loaded Sprague-Dawley rat assessed as reduction of blood glucose level at 64 mg/kg, po in presence of microsomal enzyme inhibitor SKF 525-A. The class given is functional, organism-based. Set-up: dose 64 mg/kg.
Data set [24] relates to Rattus norvegicus. In words: Toxicity in Sprague-Dawley rat assessed as very rigid structure at 240 mg/kg, po. The class given is organism-based. The arrangement: dose 240 mg/kg, route oral. The conditions noted are these: in vivo.
The subject of data set [25] is Rattus norvegicus. In words: Hypoglycemic activity in glucose loaded Sprague-Dawley rat assessed as reduction of blood glucose level at 64 mg/kg, po relative to control. The class given is functional. Set-up: scale not given: the % may be the effect or the level left.
The test system of data set [26] is Rattus norvegicus. Nature of the data set: Toxicity in Sprague-Dawley rat assessed as convulsion at 480 mg/kg, po. Type of data set: organism-based. The arrangement: dose 480 mg/kg, route oral. The conditions noted are these: in vivo.
The test system of data set [27] is Mus musculus. In words: Analgesic activity in sc dosed Swiss-Webster mouse assessed as reduction of acetylcholine-induced writhing. Type of data set: functional. The conditions noted are these: Mus musculus, Swiss-Webster, sc; read-out: ED50.
Data set [28] concerns Rattus norvegicus. Nature of the data set: Toxicity in Sprague-Dawley rat assessed as tremor at 240 mg/kg, sc. The class given is organism-based. Set-up: dose 240 mg/kg, route subcutaneous. The conditions noted are these: in vivo.
Data set [29] deals with Rattus norvegicus. Nature of the data set: Narcotic analgesic activity in fed Sprague-Dawley rat at 240 mg/kg, sc measured at 30 mins by D'Amour-Smith tail-flick test. The class given is functional. The conditions noted are these: route subcutaneous.
The test system of data set [30] is Rattus norvegicus. Nature of the data set: Hypoglycemic activity in Sprague-Dawley rat assessed as reduction of blood glucose level at 87 mg/kg, po by glucagon-impaired glucose disposal test relative to control. Type of data set: functional. Set-up: scale not given: the % may be the effect or the level left.
The test system of data set [31] is Rattus norvegicus. In words: Toxicity in Sprague-Dawley rat assessed as convulsion at 240 mg/kg, sc. The arrangement: dose 240 mg/kg, route subcutaneous. The conditions noted are these: in vivo. The class given is organism-based.
The test system of data set [32] is Rattus norvegicus. Nature of the data set: Analgesic activity in rat assessed as protection against intraarterial bradykinin-induced pain response at 50 mg/kg, sc relative to control. The conditions noted are these: route subcutaneous. Type of data set: functional.

Regarding `CN1[C@@H]2CC[C@@H]1[C@@H](c1ccccc1)[C@@H](C(=O)O)C2`, the Activity in the data set on Rattus norvegicus [1] was below 20%; in the data set on Mus musculus [2], 7%; with Rattus norvegicus [3], below 20%; in the data set on Rattus norvegicus [4] it was below 20%.

For `COC(=O)[C@H]1C[C@H]2CC[C@H]([C@H]1c1ccccc1)N2Cc1ccccc1`, the Activity result with Rattus norvegicus [5] is given as “Toxic”; with Rattus norvegicus [7], “Toxic”; in the data set with Rattus norvegicus [8], 60%; in the data set with Rattus norvegicus [9], 42%. In the data set on Mus musculus [6], the ED50 (as a rule, the dose that gives a 50% effect, or the effect in half of the subjects) was 21 mg/kg.

On to `COC(=O)[C@H]1C[C@H]2CC[C@H]([C@H]1c1cccs1)N2C.Cl`, for which the ED50 with Rattus norvegicus [10] came out at 6.9 mg/kg; in the data set with Rattus norvegicus [14], 60 mg/kg; with Rattus norvegicus [16], 59 mg/kg. Besides, the Activity was 75% with Rattus norvegicus [11] (88 mg/kg); “Toxic” in the data set with Rattus norvegicus [12]; “Toxic” in the data set with Rattus norvegicus [15]; “Toxic” with Rattus norvegicus [17]; “Toxic” in the data set with Rattus norvegicus [18]. For the same compound, the “Ratio ED50” value in the data set on Rattus norvegicus [13] is above 10.

Turning to `CCC(CC)CN1[C@@H]2CC[C@@H]1[C@@H](c1cccs1)[C@@H](C(=O)OC)C2`, the Activity in the data set with Rattus norvegicus [1] is listed as 72%; in the data set on Rattus norvegicus [19], 69%; with Mus musculus [2] it was 7%; in the data set filed under Rattus norvegicus [20] it was 24%.

Regarding `COC(=O)CN1[C@@H]2CC[C@@H]1[C@@H](c1cccs1)[C@@H](C(=O)OC)C2.Cl`, the Activity with Rattus norvegicus [1] came out at 100%; in the data set on Rattus norvegicus [21] it was 70%; in the data set with Mus musculus [22], 33%. Besides, the outcome in the data set with Rattus norvegicus [11] was inactive.

Regarding `COC(=O)[C@H]1C[C@H]2CC[C@H]([C@H]1c1cccs1)N2CCC#N.Cc1ccc(S(=O)(=O)O)cc1`, the Activity with Rattus norvegicus [1] is recorded as 100%; with Rattus norvegicus [24], “Toxic”; with Rattus norvegicus [25], 64%. Besides, the outcome with Rattus norvegicus [23] was Active. In addition, the ED50 in the data set on Mus musculus [6] came to 60 mg/kg.

Consider `COC(=O)[C@H]1C[C@H]2CC[C@H]([C@H]1c1ccc[nH]1)N2C`, for which the Activity entry with Rattus norvegicus [5] is “Toxic”; in the data set on Rattus norvegicus [26] it was “Toxic”; in the data set with Rattus norvegicus [8], 86%; in the data set on Rattus norvegicus [4], 19%; with Rattus norvegicus [9], 30%. Also, the 50% effective dose (ED50) in the data set with Rattus norvegicus [10] was 8.5 mg/kg; in the data set on Mus musculus [27], 18 mg/kg.

As to `CC(=O)[C@H]1C[C@H]2CC[C@H]([C@H]1c1cccs1)N2C.Cl`, the Activity entry with Rattus norvegicus [28] is “Toxic”; in the data set with Rattus norvegicus [29], 55%; with Rattus norvegicus [30], 26%; in the data set with Rattus norvegicus [31], “Toxic”; in the data set with Rattus norvegicus [32], 80%. Also, the ED50 with Mus musculus [27] is 12 mg/kg.
